# What was measured:
# [1] = Indoor discoloring and fading property of a printed image (ozone resistance); format: physicochemical; settings: ozone concentration 3 ppm, humidity 50 to 60%, 2 hours, light-shielded; specialized photoprint paper
# Method: (b) Indoor discoloring and fading property of a printed image (ozone resistance):
# In a light-shielded tank having an ozone concentration of 3 ppm, a printed matter was left on standing under a humidity of 50 to 60% for 2 hours, and the degree of discoloring and fading before and after the standing was measured by Macbeth densitometer (Gretag Macbeth SPM50, manufactured by Macbeth), and quantified as the form of a ΔE value. In the case of the specialized photoprint paper, a good result was obtained at the above measurement wherein the ΔE value was 11.2.
# [2] = Light resistance of a recorded image (xenon fade-meter); format: physicochemical; settings: 150 to 160 kJ/m^2 for 80 hours, specialized photoprint paper, larger value = more fading
# Method: (a) Light resistance of a recorded image:
# Using a xenon fade-meter (manufactured by Atlas), a recording paper was irradiated at an irradiation energy of 150 to 160 kJ/m^2 for 80 hours, and the degree of discoloring and fading before and after the irradiation was measured by Macbeth densitometer (Gretag Macbeth SPM50, manufactured by Macbeth), and quantified as the form of a ΔE value. Incidentally, the ΔE value is a numerical value expressing the degree of discoloring and fading. That is, the larger the value is, the larger the degree of discoloring and fading is and the lower the light fastness of the image is. In the case of the specialized photoprint paper, a good result was obtained at the above measurement wherein the ΔE value was 2.1.
structure (smiles),measurement,setting,value
N#Cc1nc(/N=N/c2ccc(N(CCC(=O)[O-])CCC(=O)[O-])cc2N)[nH]c1C#N.[Na+].[Na+] [Comparative dyestuff b],Indoor discoloring & fading property (ΔE),[1],4.3
same,Light resistance (ΔE),[2],7.0
